Assay [1] has as its system adult mongrel dogs. Description: Renal vasodilating activity in anesthetized dogs. The following applies: Canis lupus familiaris; for change in vivo at 0.34 mg/kg: 0.34 mg/kg intravenous; for change in vivo at 6.2 mg/kg: 6.2 mg/kg intravenous; for change in vivo at 0.14 mg/kg: 0.14 mg/kg intravenous; for change in vivo at 0.04 mg/kg: 0.04 mg/kg intravenous. It counts as in vivo, dog (adult mongrel). The protocol: Goldberg et al, J. Pharmacol. Exp. Ther., 163, 188 (1968), performed an investigation of the structural requirements for dopamine-like renal vasodilation of phenethylamines and apmorphine. The following procedure is a variation of the assay described in that report.
Adult mongrel dogs were anesthetized and surgically prepared for electromagnetic measurement of renal artery blood flow. A carotid artery was cannulated for measuring arterial blood pressure, and drugs were administered intravenously or intraarterially (via the renal artery). Heart rate was monitored with a cardiotachometer. Renal vascular resistance was calculated as the ratio of mean arterial blood pressure/renal artery blood flow. Dopamine was infused intravenously at […] for ten minutes (at an infusion rate of about 1 ml/min) to determine responsiveness of each dog to renal dopamine receptor stimulation. Cumulative dose-response data were obtained by infusing a compound of this invention at progressively increasing (usually three-fold) infusion rates, esch dose being infused for five minutes. The maximum percent increase from pre-drug control in renal artery blood flow (or a decrease in renal vascular resistance) was determined for each infusion dose.
RBF values are percent increase in renal blood flow. RVR values are percent increase in renal vascular resistance. MABP and HR are increases in mean arterial blood pressure and heart rate, respectively, relative to controls.

For assay [2], the system named is adult mongrel dogs. Kind of assay: Acute in vivo cardiotonic activity in anesthetized dogs. Also on record: species or system dog (adult mongrel). The following applies: Canis lupus familiaris, relative to controls; for change in vivo at 0.375 mg/kg: 0.375 mg/kg intravenous; for change in vivo at 0.875 mg/kg: 0.875 mg/kg intravenous; for change in vivo at 1.875 mg/kg: 1.875 mg/kg intravenous; for change in vivo at 0.125 mg/kg: 0.125 mg/kg intravenous. As for the experimental part: The acute in vivo cardiotonic activity of compounds prepared according to the present invention was determined according to a modification of the procedure described by Alousi et al., Circ. Res., 45, 666 (1979).
In particular, adult mongrel dogs were anesthetized with sodium pentobarbital and were artificially respired. Arterial pressure was monitored via a femoral artery, and the pulse pressure was used to trigger a cardiotachometer for heart rate. Left ventricular pressure was determined with a Millar catheter, and dP/dt (the change in ventricular pressure with time) was derived. Cardiac output was determined by measuring ascending aortic blood flow with an electromagnetic flow probe, and myocardial contractile force was measured with a Walton Brodie strain gauge sutured to the right ventricle. Lead II EKG was also recorded.
A standard dose (10 μ/kg/min) of dopamine was administered to assess myocardial responsiveness.
Compounds of the invention were administered by intravenous infusion or bolus oral administration, and the effects on cardiovascular parameters were determined.
Dose related effects on the test compound on blood pressure (BP), heart rate (HR), maximum change in left ventricular pressure with time (dP/dt max), % change in cardiac force (CF) and the increase in mean arterial blood pressure relative to controls (MABP) were compared to pretreatment control values, expressed as a % change and rated for activity. Statistical evaluations were made using the appropriate parametric test against controls.

[3] abbreviates: relative to controls, read-out: HR, percent change in heart rate.
[4] abbreviates: relative to controls, read-out: MABP, mean arterial blood pressure.
Where [5] appears, read: relative to controls, read-out: RBF, renal blood flow.
The mark [6] stands for this setting: relative to controls, read-out: RVR, renal vascular resistance.
Where [7] appears, read: read-out: CF, percent change in cardiac force.
Setting [8] is: read-out: HR, percent change in heart rate.
[9] abbreviates: read-out: MABP, mean arterial blood pressure.
[10] abbreviates: read-out: dP/dt, maximum change left ventricular pressure with time.
The mark [11] stands for this setting: 1.2 mg/kg intravenous, relative to controls, read-out: HR, percent change in heart rate.
[12] abbreviates: 1.2 mg/kg intravenous, relative to controls, read-out: MABP, mean arterial blood pressure.
The mark [13] stands for this setting: 1.2 mg/kg intravenous, relative to controls, read-out: RBF, renal blood flow.
Setting [14] is: 1.2 mg/kg intravenous, relative to controls, read-out: RVR, renal vascular resistance.
Setting [15] is: iv, read-out: HR, percent change in heart rate.

Read-outs that look alike come from different tables or passages of the source.

Consider `CCOc1cc2c(C)nc(O)c([N+](=O)[O-])c2cc1OCC` [BK], for which the change in vivo at 0.34 mg/kg with adult mongrel dogs [1] (setting [3]) is 3%; in the assay on adult mongrel dogs [1] (setting [4]), -21%; in the assay on adult mongrel dogs [1] (setting [5]), 14%; with adult mongrel dogs [1] (setting [6]) it was -30%. Also, the change in vivo at 0.375 mg/kg is 62% in the assay with adult mongrel dogs [2] (setting [7]), 11% in the assay with adult mongrel dogs [2] (setting [8]), -2% with adult mongrel dogs [2] (setting [9]) and 22% with adult mongrel dogs [2] (setting [10]).

Regarding `COc1cc2c([N+](=O)[O-])c(O)nc(C)c2c(OC)c1OC` [BE], the change in vivo at 1.2 mg/kg in the assay on adult mongrel dogs [1] (setting [11]) was 32%; in the assay with adult mongrel dogs [1] (setting [12]), -26%; in the assay with adult mongrel dogs [1] (setting [13]), 60%; in the assay on adult mongrel dogs [1] (setting [14]) it was -52%. In addition, the change in vivo at 0.875 mg/kg with adult mongrel dogs [2] (setting [7]) is 84%; with adult mongrel dogs [2] (setting [8]) it was 18%; with adult mongrel dogs [2] (setting [9]), -22%; with adult mongrel dogs [2] (setting [10]), 38%.

On to `COc1cc2c(C)nc(O)c(N)c2cc1OC` [Compound BBQ, 4-Amino-3-hydroxy-6,7-dimethoxy-1-methylisoquinoline], for which the change in vivo at 1.2 mg/kg is 4% with adult mongrel dogs [1] (setting [11]), 6% in the assay with adult mongrel dogs [1] (setting [12]), 22% in the assay with adult mongrel dogs [1] (setting [13]) and -12% in the assay with adult mongrel dogs [1] (setting [14]). Further, the change in vivo at 0.875 mg/kg with adult mongrel dogs [2] (setting [7]) is 99%; in the assay on adult mongrel dogs [2] (setting [8]), 7%; in the assay on adult mongrel dogs [2] (setting [9]) it was -5%; in the assay with adult mongrel dogs [2] (setting [10]) it was 106%.

Regarding `CCOc1cc2c(C)nc(O)c(NC(C)=O)c2cc1OC` [BJ], the change in vivo at 6.34 mg/kg with adult mongrel dogs [1] (setting [15]) was -16%; in the assay with adult mongrel dogs [1] (6.34 mg/kg intravenous, relative to controls, read-out: MABP, mean arterial blood pressure) it was -4%; in the assay on adult mongrel dogs [1] (6.34 mg/kg intravenous, relative to controls, read-out: RBF, renal blood flow), 18%; with adult mongrel dogs [1] (6.34 mg/kg intravenous, relative to controls, read-out: RVR, renal vascular resistance) it was -19%. The change in vivo at 1.875 mg/kg in the assay on adult mongrel dogs [2] (setting [7]) is 21%; in the assay with adult mongrel dogs [2] (setting [8]), -3%; in the assay with adult mongrel dogs [2] (setting [9]), 1%; in the assay with adult mongrel dogs [2] (setting [10]) it was 8%.

For `COc1cc2cnc(O)c(NC(C)=O)c2cc1OC` [BF], the change in vivo at 6.2 mg/kg is -8% with adult mongrel dogs [1] (setting [3]), 14% with adult mongrel dogs [1] (setting [4]), 30% in the assay on adult mongrel dogs [1] (setting [5]) and -12% with adult mongrel dogs [1] (setting [6]). Further, the change in vivo at 1.875 mg/kg was determined as 23% in the assay with adult mongrel dogs [2] (setting [7]), 7% with adult mongrel dogs [2] (setting [8]), 1% in the assay on adult mongrel dogs [2] (setting [9]) and 38% in the assay with adult mongrel dogs [2] (setting [10]).

Regarding `CCCCOc1cc2c(C)nc(O)c([N+](=O)[O-])c2cc1OC` [BI], the change in vivo at 0.14 mg/kg was -8% in the assay on adult mongrel dogs [1] (setting [4]), 16% in the assay on adult mongrel dogs [1] (setting [5]) and -18% with adult mongrel dogs [1] (setting [6]). Besides, the change in vivo at 0.375 mg/kg in the assay with adult mongrel dogs [2] (setting [7]) is 118%; with adult mongrel dogs [2] (setting [8]), 30%; with adult mongrel dogs [2] (setting [9]), -35%; with adult mongrel dogs [2] (setting [10]), 8%.

`COc1cc2c(-c3ccccc3)nc(O)c([N+](=O)[O-])c2cc1OC` [BL]: the change in vivo at 0.34 mg/kg in the assay on adult mongrel dogs [1] (setting [3]) is 29%; with adult mongrel dogs [1] (setting [4]) it was 6%; in the assay with adult mongrel dogs [1] (setting [5]) it was 13%; in the assay with adult mongrel dogs [1] (setting [6]) it was -5%. Also, the change in vivo at 1.875 mg/kg with adult mongrel dogs [2] (setting [7]) was 10%; in the assay on adult mongrel dogs [2] (setting [8]) it was -29%; in the assay on adult mongrel dogs [2] (setting [9]) it was -15%; in the assay with adult mongrel dogs [2] (setting [10]), 11%.

Take `CCOc1cc2c(C)nc(O)c([N+](=O)[O-])c2cc1OC` [BH]: the change in vivo at 0.04 mg/kg in the assay on adult mongrel dogs [1] (setting [3]) was 19%; with adult mongrel dogs [1] (setting [4]) it was -10%; in the assay with adult mongrel dogs [1] (setting [5]), 25%; in the assay with adult mongrel dogs [1] (setting [6]) it was -28%. In addition, the change in vivo at 0.125 mg/kg in the assay on adult mongrel dogs [2] (setting [7]) is 134%; in the assay on adult mongrel dogs [2] (setting [8]), 18%; in the assay with adult mongrel dogs [2] (setting [9]), -24%; with adult mongrel dogs [2] (setting [10]), 74%.

`Cc1nc(O)c([N+](=O)[O-])c2cc3c(cc12)OCO3` [Compound BB]: the change in vivo at 6.2 mg/kg is 90% in the assay with adult mongrel dogs [1] (setting [3]), -16% in the assay with adult mongrel dogs [1] (setting [4]), 19% in the assay on adult mongrel dogs [1] (setting [5]) and -30% in the assay with adult mongrel dogs [1] (setting [6]). Besides, the change in vivo at 1.875 mg/kg in the assay on adult mongrel dogs [2] (setting [7]) was 28%; in the assay on adult mongrel dogs [2] (setting [8]) it was -17%; with adult mongrel dogs [2] (setting [9]), -8%; in the assay with adult mongrel dogs [2] (setting [10]), -1%.

In the case of `CCCCOC(=O)Nc1c(O)nc(C)c2cc(OC)c(OC)cc12` [Compound BBP, 4-[N-(n-Butoxycarbonyl)amino]-3-hydroxy-6,7-dimethoxy-1-methylisoquinoline], the change in vivo at 6.2 mg/kg is 1% with adult mongrel dogs [1] (setting [4]), 77% in the assay on adult mongrel dogs [1] (setting [5]) and -42% in the assay on adult mongrel dogs [1] (setting [6]).

Regarding `COc1cc2c(C)nc(O)c(NC(=O)Nc3ccc(C(=O)O)cc3)c2cc1OC` [Compound BCA, 4-[N-(4-Carboxyphenyl)ureido]-3-hydroxy-6,7-dimethoxy-1-methylisoquinoline.5/2 Hydrate], the change in vivo at 1.2 mg/kg with adult mongrel dogs [1] (setting [11]) was -12%; with adult mongrel dogs [1] (setting [12]), -1%; in the assay with adult mongrel dogs [1] (setting [13]), 40%; with adult mongrel dogs [1] (setting [14]) it was -28%.

With `CCOc1cc2c(C)nc(O)c(NC(=O)Nc3ccc(C(F)(F)F)cc3)c2cc1OC` [BV], the change in vivo at 6.2 mg/kg in the assay on adult mongrel dogs [1] (setting [3]) is 26%; with adult mongrel dogs [1] (setting [4]) it was -6%; in the assay on adult mongrel dogs [1] (setting [5]) it was 25%; with adult mongrel dogs [1] (setting [6]), -24%.

For `COc1ccc(NC(=O)Nc2c(O)ncc3cc(OC)c(OC)cc23)cc1` [BBG], the change in vivo at 1.2 mg/kg with adult mongrel dogs [1] (setting [15]) was 12%; in the assay on adult mongrel dogs [1] (setting [12]) it was 1%; in the assay with adult mongrel dogs [1] (setting [13]), 15%; with adult mongrel dogs [1] (setting [14]), -11%.

(Values after patent US4714705A, “4-nitrogen substituted isoquinolinol compounds having cardiotonic, phosphodiesterase fraction III inhibiting properties and/or renal vasodilating properties” (Ortho Pharmaceutical Corporation, priority 1986, dated 1987).)
